Data: PMC8592027, “Structure-Guided Design of D-Galactal Derivatives with High Affinity and Selectivity for the Galectin-8 N-Terminal Domain” (ACS Medicinal Chemistry Letters, 2021)

Tests used:
galectin-1 = target: T1, galectin-1 (Homo sapiens, UniProt P09382); assay: Competitive fluorescence polarization assay, galectin-1; type: binding; conditions: mean ± SEM of n = 4–8
T1 construct: made in house
Method: (§1) 1. Competitive fluorescence polarization experiments:
(§2) Human galectins -1, -3, -4N, -4C, -7, -8N, -9N, and -9C were expressed and purified as previously described 30,41. Fluorescence polarisation experiments were performed using the PHERAstar FS plat e reader (software version 2.10 R3), and the fluorescence anisotropy of fluorescein tagged probes was measured by excitation at 485 nm and emission at 520 nm. The specific conditions for galectins -1, -3, -4N, -4C, -7, -8N, -9N, and -9C were kept as report ed30,41,42. The synthesised compounds were dissolved in pure DMSO at 20 mM concentration and diluted in PBS to 3-6 different concentrations, and each concentration was tested in duplicate. The highest inhibitor concentrations tested were 1.5 mM. The

[1] = target: T2, galectin-9N (N-terminal domain) (Homo sapiens, UniProt O00182); assay: Competitive fluorescence polarization assay, galectin-9N; type: binding; conditions: mean ± SEM of n = 4–8
T2 construct: galectins (N = N-terminal domain, C = C-terminal domain); made in house
Method: as §1, §2

[2] = target: T3, galectin-8C (C-terminal domain) (Homo sapiens, UniProt O00214); assay: Competitive fluorescence polarization assay, galectin-8C; type: binding; conditions: mean ± SEM of n = 4–8
T3 construct: galectins (N = N-terminal domain, C = C-terminal domain)
T3 sequence (O00214 187-317 limits assumed): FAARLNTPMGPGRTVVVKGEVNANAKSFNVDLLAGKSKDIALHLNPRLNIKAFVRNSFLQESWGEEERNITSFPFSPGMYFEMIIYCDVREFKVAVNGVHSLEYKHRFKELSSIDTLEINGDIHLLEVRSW

[3] = system: IL-6 secretion from MDA-MB-231 cells; assay: Multiplexed cytokine assay, IL-6 secretion; type: cell-based, human; conditions: 24 hours, vs untreated cells
Method: Figure 5 Effect of compounds 1 and 6a on the secretion of IL-6 and IL-8 expressed in pg/mL. The effects were measured after incubating the cells with the compounds at 10 and 100 μM. Compounds 1 and 6a reduce the secretion of IL-6 and IL-8 in a dose-dependent manner at 100 and 10 μM. Results shown are means ± SEM of three independent experiments. ns, not significant (p > 0.05); *p < 0.05 versus untreated controls.
Metabolic activity assay: […]
Briefly, the cells were treated with the selected compounds in 0.1% dimethyl sulfoxide (DMSO; vehicle), 0.1% DMSO (control vehicle), or medium (control) and seeded at a cell density of 5,500 cells/well (MDA-MB-231 cells) or 4 x 10^4 cells/well (K562 cells), 7000 cells/well (HepG2 cells) or 1 x 10^5 cells/well (human PBMCs) in duplicates (MDA-MB-231, K562, and […]) or triplicates for HepG2 cells (100 µL), in sterile 96-well plates. For the MDA-MB-231 and HepG2, the cells were left to adhere overnight before adding the compounds. The plates were then incubated for 24 hours (48 hours for HepG2), after which 15 µL of MTS reagent was added to each well. […]
HTX Multi-Mode; BioTek Instruments, Inc., VT, USA).
Multiplexed cytokine assay:
MDA-MB-231 cells were seeded in 96-well flat-bottom plates at a density of 2 x 10^4 cells/well in 100 µL of medium and allowed to adhere for 24 hours at 37 °C and 5% CO2. The medium was then replaced by a fresh medium containing the desired concentrations of compounds 1 and 6a, after which the cells were cells incubated again for 24 hours at 37 °C and 5% CO2. Cell-free supernatants were collected and stored at – 80 °C before the analysis. The cytokines secretion was assessed by BD Cytometric Bead Array Human inflammatory cytokine Kit (content: IL-1, IL-6, IL-8, IL-10, IL-12p). The flow cytometric analyses were performed on an Attune NxT flow cytometer (Thermo Fisher Scientific, Waltham, MA, USA). Standard curves were generated using recombinant cytokines provided in the kit, and the data were analyzed with FlowJo software (Tree Star, Inc., Ashland, OR). The results are expressed in pg/mL. Data are represented as means ± standard deviation (SD) from three representative independent experiments.
All experiments were performed at least twice, with average values expressed as means ± SD. All data were analyzed with the statistical software GraphPad Prism 8.0 (GraphPad Software, Inc., CA, USA). by one-way ANOVA followed with Dunnett’s multiple compar ison test. Differences were considered non-significant for p > 0.05, and significant (*) for p < 0.05.

galectin-7 = target: T4, galectin-7 (Homo sapiens, UniProt P47929); assay: Competitive fluorescence polarization assay, galectin-7; type: binding; conditions: mean ± SEM of n = 4–8
T4 construct: made in house
Method: as §1, §2

T4 sequence (P47929 whole entry): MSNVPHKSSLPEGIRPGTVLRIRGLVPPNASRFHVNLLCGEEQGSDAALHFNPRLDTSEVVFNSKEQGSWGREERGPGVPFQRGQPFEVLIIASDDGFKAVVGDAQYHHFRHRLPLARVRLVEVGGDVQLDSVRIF
T2 sequence (O00182 17-148 limits assumed): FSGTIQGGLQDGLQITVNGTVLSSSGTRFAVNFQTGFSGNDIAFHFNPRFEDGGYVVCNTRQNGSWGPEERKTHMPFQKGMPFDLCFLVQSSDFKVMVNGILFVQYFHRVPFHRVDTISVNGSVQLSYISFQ
T1 sequence (P09382 whole entry): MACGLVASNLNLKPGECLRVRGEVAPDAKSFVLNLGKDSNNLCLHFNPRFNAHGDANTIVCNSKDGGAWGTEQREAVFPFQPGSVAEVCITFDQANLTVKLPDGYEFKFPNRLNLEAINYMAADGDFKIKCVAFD

## Cn1c(CO[C@@H]2C=CO[C@H](CO)[C@@H]2O)nc2ccc(C(=O)O)cc21 [6a]
galectin-1
  Kd: 1300 ± 130 µM
[1]
  Kd: 1400 ± 57 µM
[2]
  Kd: 4000 ± 500 µM
[3]; 10 μM, effect not significant
  reduction in IL-6 secretion: about 15%
[3]; 100 μM
  reduction of IL-6 secretion: about 65%
galectin-7
  Kd: > 1500 µM
